For this test, the target named is T1, VEGFR/KDR (Homo sapiens, UniProt P35968).
T1 construct: made in house; host or cells: Sf9 cells (Spodoptera frugiperda), baculovirus
T1 sequence (P35968 806-1356): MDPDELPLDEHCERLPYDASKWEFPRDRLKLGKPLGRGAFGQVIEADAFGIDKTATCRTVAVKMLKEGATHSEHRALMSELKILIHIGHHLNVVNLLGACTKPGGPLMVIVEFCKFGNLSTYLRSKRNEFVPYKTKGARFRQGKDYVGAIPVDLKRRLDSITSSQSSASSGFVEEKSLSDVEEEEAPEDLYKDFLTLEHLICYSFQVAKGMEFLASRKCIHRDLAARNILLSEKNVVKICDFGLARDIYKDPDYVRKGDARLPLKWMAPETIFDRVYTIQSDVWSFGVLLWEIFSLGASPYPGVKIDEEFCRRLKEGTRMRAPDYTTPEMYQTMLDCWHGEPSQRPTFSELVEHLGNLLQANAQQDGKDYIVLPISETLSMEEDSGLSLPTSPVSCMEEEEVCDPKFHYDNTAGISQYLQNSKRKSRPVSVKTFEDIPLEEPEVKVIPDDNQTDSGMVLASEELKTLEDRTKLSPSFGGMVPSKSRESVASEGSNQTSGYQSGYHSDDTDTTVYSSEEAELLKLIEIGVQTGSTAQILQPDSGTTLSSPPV
The test is described as follows: VEGFR/KDR kinase inhibition, DELFIA assay. The format is biochemical. As to conditions: ATP 0.6 uM (2x Km), enzyme 5 nM. As for the experimental part:
Inhibition of VEGFR/KDR is measured in a DELFIA™ assay (Perkin Elmer). The substrate poly(Glu4, Tyr) is immobilized onto black high-binding polystyrene 96-well plates. The coated plates are washed and stored at 4° C. During the assay, the enzyme is pre-incubated with inhibitor and Mg-ATP on ice in polypropylene 96-well plates for 4 minutes, and then transferred to the coated plates. The subsequent kinase reaction takes place at 30° C. for 10-30 minutes. ATP concentrations in the assay are 0.6 uM for VEGFR/KDR (2× the Km). Enzyme concentration is 5 nM. After incubation, the kinase reactions are quenched with EDTA and the plates are washed. Phosphorylated product is detected by incubation with Europium-labeled anti-phosphotyrosine MoAb. After washing the plates, bound MoAb is detected by time-resolved fluorescence in a Gemini SpectraMax reader (Molecular Devices). Compounds are evaluated over a range of concentrations, and IC50 values (concentration of compounds giving 50% inhibition of enzymatic activity) are determined.
Compound `CN(C)CCNC(=O)C1CN(Cc2ccc(-c3cc4nccc(Oc5ccc(NC(=O)NC6CC6)cc5F)c4s3)nc2)C1` [Compound 490, 1-((6-(7-(4-(3-cyclopropylureido)-2-fluorophenoxy)thieno[3,2-b]pyridin-2-yl)pyridin-3-yl)methyl)-N-(2-(dimethylamino)ethyl)azetidine-3-carboxamide] had a 50% inhibitory concentration (IC50) below 50 nM. In the case of `CNC(=O)c1cc2nccc(Oc3ccc(NC(=O)NC4CC4)cc3F)c2s1` [Compound 444], the 50% inhibitory concentration (IC50) is below 50 nM. The result for `O=C(Nc1ccc(Oc2ccnc3cc(-c4ccc(CN5CCN(C(=O)CCCC[C@H]6SC[C@H]7NC(=O)N[C@H]76)CC5)cn4)sc23)c(F)c1)NC1CC1` [Compound 535] reads below 50 nM. In turn, `COCCN(Cc1ccc(-c2cc3nccc(Oc4ccc(NC(=S)NC5CC5)cc4F)c3s2)nc1)C(=O)CO` [Compound 505, N-((6-(7-(4-(3-cyclopropylthioureido)-2-fluorophenoxy)thieno[3,2-b]pyridin-2-yl)pyridin-3-yl)methyl)-2-hydroxy-N-(2-methoxyethyl)acetamide] had an IC50 of 50 to 100 nM. In turn, `CCNC(=O)N(CCOC)Cc1ccc(-c2cc3nccc(Oc4ccc(NC(=S)NC5CC5)cc4F)c3s2)nc1` [Compound 503, 1-((6-(7-(4-(3-cyclopropylthioureido)-2-fluorophenoxy)thieno[3,2-b]pyridin-2-yl)pyridin-3-yl)methyl)-3-ethyl-1-(2-methoxyethyl)urea] yielded an IC50 of 50 to 100 nM. In turn, `O=C(Nc1ccc(Oc2ccnc3cc(-c4ccc(CN5CCC(O)CC5)cn4)sc23)c(F)c1)NC1CC1` [Compound 599, 1-Cyclopropyl-3-(3-fluoro-4-(2-(5-((4-hydroxypiperidin-1-yl)methyl)pyridin-2-yl)thieno[3,2-b]pyridin-7-yloxy)phenyl)urea] gave an IC50 below 50 nM. As for `O=C(O)CCN1CCN(C(=O)c2ccc(-c3cc4nccc(Oc5ccc(NC(=O)NC6CC6)cc5F)c4s3)nc2)CC1` [Compound 239, 3-(4-(6-(7-(4-(3-cyclopropylureido)-2-fluorophenoxy)thieno[3,2-b]pyridin-2-yl)nicotinoyl)piperazin-1-yl)propanoic acid tetraacetate], the figure is below 50 nM.

In turn, `COC(=O)COC1CCN(Cc2ccc(-c3cc4nccc(Oc5ccc(NC(=O)NC6CC6)cc5F)c4s3)nc2)CC1` [Compound 328, methyl 2-(1-((6-(7-(4-(3-cyclopropylureido)-2-fluorophenoxy)thieno [3,2-b]pyridin-2-yl)pyridin-3-yl)methyl)piperidin-4-yloxy)acetate] came in with a 50% inhibitory concentration (IC50) below 50 nM. The result for `COCCOCC(=O)N1CC=C(c2cc3nccc(Oc4ccc(NC(=O)NC5CC5)cc4F)c3s2)CC1` [Compound 274] reads below 50 nM. In the case of `O=C(Nc1ccc(Oc2ccnc3cc(-c4ccc(CN5CCC(F)(F)C5)cn4)sc23)c(F)c1)NC1CC1` [Compound 315, 1-cyclopropyl-3-(4-(2-(5-((3,3-difluoropyrrolidin-1-yl)methyl)pyridin-2-yl)thieno[3,2-b]pyridin-7-yloxy)-3-fluorophenyl)urea], the half-maximal inhibitory concentration (IC50) was below 50 nM.

For the compound `CNC1CCN(C(=O)c2ccc(-c3cc4nccc(Oc5ccc(NC(=O)NC6CC6)cc5F)c4s3)nc2)CC1` [Compound 399], the concentration for half-maximal inhibition (IC50) was below 50 nM. Compound `CN(C(=O)OC(C)(C)C)C1CCN(C(=O)c2ccc(-c3cc4nccc(Oc5ccc(NC(=O)NC6CC6)cc5F)c4s3)nc2)CC1` [Compound 397] came in with a concentration for half-maximal inhibition (IC50) below 50 nM. The result for `COCCNCCc1ccc(-c2cc3nccc(Oc4ccc(NC(=O)Nc5cc(C)on5)cc4F)c3s2)nc1` [Compound 183, 1-(3-fluoro-4-(2-(5-(2-(2-methoxyethylamino)ethyl)pyridin-2-yl)thieno[3,2-b]pyridin-7-yloxy)phenyl)-3-(5-methylisoxazol-3-yl)urea] reads below 50 nM; that for `NC1CCN(C(=O)Cn2cc(-c3cc4nccc(Oc5ccc(NC(=O)NC6CC6)cc5F)c4s3)nn2)CC1` [Compound 395], below 50 nM. Turning to `O=C(Nc1ccc(Oc2ccnc3cc(-c4ccc(C(=O)N5CCN(C(=O)CO)CC5)cn4)sc23)c(F)c1)NC1CC1` [Compound 584], the concentration for half-maximal inhibition (IC50) is below 50 nM. In the case of `N#CCCN1CCN(Cc2ccc(-c3cc4nccc(Oc5ccc(NC(=O)NC6CC6)cc5F)c4s3)nc2)CC1` [Compound 57, 1-(4-(2-(5-((4-(2-cyanoethyl)piperazin-1-yl)methyl)pyridin-2-yl)thieno[3,2-b]-pyridin-7-yloxy)-3-fluorophcnyl)-3-cyclopropylurea], the IC50 was below 50 nM. For `O=C(Nc1ccc(Oc2ccnc3cc(-c4ccc(CN5CCC(C(=O)NCCO)CC5)cn4)sc23)c(F)c1)NC1CC1` [Compound 483, 1-((6-(7-(4-(3-cyclopropylureido)-2-fluorophenoxy)thieno[3,2-b]pyridin-2-yl)pyridin-3-yl)methyl)-N-(2-hydroxyethyl)piperidine-4-carboxamide], the IC50 is below 50 nM.

In the case of `CCN(CC)CCNC(=O)c1ccc(NCc2ccc(-c3cc4nccc(Oc5ccc(NC(=O)NC6CC6)cc5F)c4s3)nc2)cc1` [Compound 340, 4-((6-(7-(4-(3-cyclopropylureido)-2-fluorophenoxy)thieno[3,2-b]pyridin-2-yl)pyridin-3-yl)methylamino)-N-(2-(diethylamino)ethyl)benzamide], the IC50 was below 50 nM. `O=C(Nc1ccc(Oc2ccnc3cc(-c4ccc(CN5CCN(C(=O)[C@@H](O)CO)CC5)cn4)sc23)c(F)c1)NC1CC1` [Compound 536] gave an IC50 below 50 nM. As for `CN1CCN(C(=O)CCn2cc(-c3cc4nccc(Oc5ccc(NC(=O)NC6CC6)cc5F)c4s3)nn2)CC1` [Compound 378], the figure is below 50 nM; as for `CC(=O)N(Cc1ccc(-c2cc3nccc(Oc4ccc(NC(=O)NC5CC5)cc4F)c3s2)nc1)C1CCNCC1` [Compound 609, N-((6-(7-(4-(3-Cyclopropylureido)-2-fluorophenoxy)thieno[3,2-b]pyridin-2-yl)pyridin-3-yl)methyl)-N-(piperidin-4-yl)acetamide], below 50 nM. `O=C(Nc1ccccc1)Nc1ccc(Oc2ccnc3cc(C#CCN4CCOCC4)sc23)c(F)c1` [Compound 120, 1-(3-fluoro-4-(2-(3-morpholinoprop-1-ynyl)thieno[3,2-b]pyridin-7-yloxy)phenyl)-3-phenylurea] returned an IC50 of 100 to 250 nM.

`COC(=O)[C@@H]1CCCN1Cc1ccc(-c2cc3nccc(Oc4ccc(NC(=O)NC5CC5)cc4F)c3s2)nc1` [Compound 476] returned an IC50 below 50 nM. Take `O=C(Nc1ccc(Oc2ccnc3cc(-c4cn(CC(=O)N5CCN(C(=O)CO)CC5)nn4)sc23)c(F)c1)NC1CC1` [Compound 391]: the IC50 was below 50 nM. The result for `CN(C)[C@H]1CCN(Cc2ccc(-c3cc4nccc(Oc5ccc(NC(=O)NC6CC6)cc5F)c4s3)nc2)C1` [Compound 54, (S)-1-cyclopropyl-3-(4-(2-(5-((3-(dimethylamino)pyrrolidin-1-yl)methyl)pyridin-2-yl)thieno[3,2-b]pyridin-7-yloxy)-3-fluorophenyl)urea] reads below 50 nM. With `O=C(Nc1ccc(Oc2ccnc3cc(-c4ccc(CN5CCC6(CC5)CCN(C(=O)CO)C6)cn4)sc23)c(F)c1)NC1CC1` [Compound 524, 1-cyclopropyl-3-(3-fluoro-4-(2-(5-((2-(2-hydroxyacetyl)-2,8-diazaspiro[4.5]decan-8-yl)methyl)pyridin-2-yl)thieno[3,2-b]pyridin-7-yloxy)phenyl)urea], the half-maximal inhibitory concentration (IC50) is below 50 nM. `CC(C)NC(=O)Nc1ccc(Oc2ccnc3cc(-c4ncc(CN5CCOCC5)n4C)sc23)c(F)c1` [Compound 299, 1-(3-fluoro-4-(2-(1-methyl-5-(morpholinomethyl)-1H-imidazol-2-yl)thieno[3,2-b]pyridin-7-yloxy)phenyl)-3-isopropylurea] had a concentration for half-maximal inhibition (IC50) below 50 nM. The result for `CN(C[C@@H](O)[C@H](O)[C@@H](O)[C@@H](O)CO)C(=O)c1ccc(-c2cc3nccc(Oc4ccc(NC(=O)NC5CC5)cc4F)c3s2)nc1` (stereo in doubt) [Compound 244, 6-(7-(4-(3-cyclopropylureido)-2-fluorophenoxy)thieno[3,2-b]pyridin-2-yl)-N-methyl-N-((2R,3S,4S,5S)-2,3,4,5,6-pentahydroxyhexyl)nicotinamide] reads below 50 nM. The compound `CC(C)NC(=O)Nc1ccc(Oc2ccnc3cc(-c4ncc(C(=O)N5CCCC5)n4C)sc23)c(F)c1` [Compound 223, 1-(3-fluoro-4-(2-(1-methyl-5-(pyrrolidine-1-carbonyl)-1H-imidazol-2-yl)thieno[3,2-b]pyridin-7-yloxy)phenyl)-3-isopropylurea] gave an IC50 of 100 to 250 nM. The result for `CS(=O)(=O)c1cccc(NC(=O)Nc2ccc(Oc3ccnc4cc(-c5ccc(C(=O)N6CCCC6)cc5)sc34)c(F)c2)c1` [Compound 130, 1-(3-fluoro-4-(2-(4-(pyrrolidine-1-carbonyl)phenyl)thieno[3,2-b]pyridin-7-yloxy)phenyl)-3-(3-(methylsulfonyl)phenyl)urea] reads below 50 nM; that for `CC(=O)OCC(=O)N1CCN(Cc2ccc(-c3cc4nccc(Oc5ccc(NC(=O)NC6CC6)cc5F)c4s3)nc2)CC1` [Compound 310, 2-(4-((6-(7-(4-(3-cyclopropylureido)-2-fluorophenoxy)thieno[3,2-b]pyridin-2-yl)pyridin-3-yl)methyl)piperazin-1-yl)-2-oxoethyl acetate], below 50 nM; that for `COCCNCc1ccc(-c2cc3nccc(Oc4ccc(NC(CC(=O)Nc5ccccc5)C(F)(F)F)cc4F)c3s2)nc1` (centres unmarked) [Compound 19, 4,4,4-trifluoro-3-(3-fluoro-4-(2-(5-((2-methoxyethylamino)methyl)pyridin-2-yl)thieno[3,2-b]pyridin-7-yloxy)phenylamino)-N-phenylbutanamide], below 50 nM.

These data come from patent US8906852B2 (MethylGene Inc., priority 2010, dated 2014).
